From patent US9006139B2, “Active compound combinations” (Bayer Intellectual Property GmbH, priority 2009, dated 2015) come the findings set out here.

Format in all cases: in vivo
One assay relates to Botrytis cinerea. The assay can be described thus: Botrytis test (beans)/protective. Conditions: Botrytis cinerea, 48 h, Table F, read-out: Efficacy in % found; for pest or weed control at 25 ppm: 25 ppm a.i.; for pest or weed control at 50 ppm: 50 ppm a.i. The procedure, abridged:
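Young bean plants were sprayed with compound in acetone/dimethylacetamide plus emulsifier diluted in water; once dry, each leaf got 2 agar pieces bearing Botrytis cinerea. Plants were held dark at 20 °C and 100% relative humidity, and lesion size was scored after 2 days as efficacy, 0% matching untreated control and 100% meaning no disease.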

Another assay concerns Pyrenophora teres. Briefly: Pyrenophora teres-test (barley)/preventive. As to the method: (§1) Solvent: 49 parts by weight of n,n-dimethylacetamid
(§2) Emulsifier: 1 part by weight of alkylaryl polyglycol ether
(§3) To produce a suitable preparation of active compound, 1 part by weight of active compound or active compound combination is mixed with the stated amounts of solvent and emulsifier, and the concentrate is diluted with water to the desired concentration. To test for preventive activity, young plants are sprayed with the preparation of active compound or active compound combination at the stated rate of application. After the spray coating has been dried, the plants are sprayed with a spore suspension of Pyrenophora teres. The plants remain for 48 hours in an incubation cabinet at approximately 20° C. and a relative atmospheric humidity of approximately 100%. The plants are placed in the greenhouse at a temperature of approximately 20° C. and a relative atmospheric humidity of approximately 80%. The test is evaluated 8 days after the inoculation. 0% means an efficacy which corresponds to that of the untreated control, while an efficacy of 100% means that no disease is observed.

Another assay relates to Leptosphaeria nodorum. Briefly: Leptosphaeria nodorum test (wheat)/preventive. Conditions: Parastagonospora nodorum, 192 h, Table K, read-out: Efficacy in % found. The procedure: as §1, §2
as §3, with “suspension of Leptosphaeria nodorum. The plants” for “suspension of Pyrenophora teres. The plants”, “of approximately 22° C. and” for “of approximately 20° C. and”

Another assay concerns Puccinia triticina. The assay can be described thus: Puccinia triticina-test (wheat)/preventive. Conditions: Table M; 500 ppm a.i. As to the method:
as §1, §2
as §3, with “Puccinia triticina.” for “Pyrenophora teres.”

Where two headings read alike, the source gives them in different places.

On to `Cn1c(=O)c2sc3c(=O)n(C)c(=O)c3sc2c1=O` [(I-1), 2,6-dimethyl-1H,5H-[1,4]dithiino[2,3-c:5,6-c′]dipyrrole-1,3,5,7(2H,6H)-tetrone], for which the pest or weed control at 25 ppm with Botrytis cinerea (test 1) and in the assay with Botrytis cinerea (test 2) was 0% throughout. The pest or weed control at 50 ppm with Botrytis cinerea (test 1) was 45%; in the assay with Botrytis cinerea (test 2) it was 40%; in the assay on Botrytis cinerea (test 3), 58%. Also, in the assay on Botrytis cinerea (test 3, 12.5 ppm a.i.), the pest or weed control at 12.5 ppm stood at 0%. The “Efficacy in % found” value with Pyrenophora teres (Table I1, 500 ppm a.i.) is recorded as 10%; with Pyrenophora teres (Table I1, 1000 ppm a.i.) it was 44%; in the assay on Pyrenophora teres (Table I2, 1000 ppm a.i.), 22%; in the assay on Puccinia triticina, 10%. Besides, the pest or weed control at 500 ppm in the assay on Leptosphaeria nodorum (500 ppm a.i.) worked out at 13%. Moreover, in the assay with Leptosphaeria nodorum (1000 ppm a.i.), the pest or weed control at 1000 ppm is 11%.
